Target: T1, PIP4K2C (Homo sapiens, UniProt Q8TBX8)
T1 sequence (Q8TBX8 1-421): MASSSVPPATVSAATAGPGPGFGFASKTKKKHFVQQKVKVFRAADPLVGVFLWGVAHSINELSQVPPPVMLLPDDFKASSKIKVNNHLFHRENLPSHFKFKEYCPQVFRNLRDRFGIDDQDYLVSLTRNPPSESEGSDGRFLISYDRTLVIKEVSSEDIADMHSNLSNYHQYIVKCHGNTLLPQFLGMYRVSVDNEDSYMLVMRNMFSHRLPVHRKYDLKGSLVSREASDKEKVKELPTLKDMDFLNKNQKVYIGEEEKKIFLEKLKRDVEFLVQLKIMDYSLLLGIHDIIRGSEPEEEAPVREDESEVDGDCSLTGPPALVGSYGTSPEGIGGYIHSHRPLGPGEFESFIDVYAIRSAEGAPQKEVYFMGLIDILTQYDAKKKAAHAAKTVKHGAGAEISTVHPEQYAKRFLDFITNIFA
Test: HiBiT PIP4K2C degradation assay in MOLT-4 cells (endogenous PIP4K2C C-terminally tagged with HiBiT)
Type: cell-based
Set-up: untagged in primary human PBMCs and monocyte-derived dendritic cells
Details: 24 hours incubation, MOLT-4, top concentration 10 micromolar; read-out: HiBIT-degradation MOLT4 PIP4k2C 24 hours DC50
Method in brief: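 In a CRISPR-engineered MOLT-4 clone carrying HiBiT-tagged PIP4K2C, degradation was assessed after 24 or 6 hours of dosing (10 micromolar top, 3-fold steps). Luminescence from lytic HiBiT detection was fitted to obtain DC50.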

| Compound | DC50 [nM] |
| --- | --- |
| O=C1CCC(N2Cc3cc(OC4CCN(C(=O)C5CCN(C(=O)C6CCC[C@@H](Nc7ncc(Cl)c(-c8cccc(-c9ccccc9)c8)n7)C6)CC5)CC4)ccc3C2=O)C(=O)N1 (stereo in doubt) [Compound 77, cis-3-(5-((1-(1-(3-((4-([1,1′-biphenyl]-3-yl)-5-chloropyrimidin-2-yl)amino)cyclohexane-1-carbonyl)piperidine-4-carbonyl)piperidin-4-yl)oxy)-1-oxoisoindolin-2-yl)piperidine-2,6-dione] | < 500 |
| O=C1CCC(Nc2ccc(C3CCN(C[C@H]4CC[C@H](NC(=O)[C@H]5CCC[C@@H](Nc6ncc(F)c(-c7cccc(-n8ccccc8=O)c7)n6)C5)CC4)CC3)c(F)c2)C(=O)N1 (stereo in doubt) [Compound 324, trans-N-(cis-4-((4-(4-((2,6-dioxopiperidin-3-yl)amino)-2-fluorophenyl)piperidin-1-yl)methyl)cyclohexyl)-3-((5-fluoro-4-(3-(2-oxopyridin-1(2H)-yl)phenyl)pyrimidin-2-yl)amino)cyclohexane-1-carboxamide] | < 500 |
| Cn1c(=O)n(C2CCC(=O)NC2=O)c2ccc(C3CCN(CCN4CCC(C(=O)N5CCC[C@H](Nc6ncc(Cl)c(-c7cccc(-c8ccccc8)c7)n6)C5)CC4)CC3)cc21 (stereo partly drawn) [Compound 44, 3-(5-(1-(2-(4-((S)-3-((4-([1,1′-biphenyl]-3-yl)-5-chloropyrimidin-2-yl)amino)piperidine-1-carbonyl)piperidin-1-yl)ethyl)piperidin-4-yl)-3-methyl-2-oxo-2,3-dihydro-1H-benzo[d]imidazol-1-yl)piperidine-2,6-dione] | < 500 |
| Cn1c(=O)n(C2CCC(=O)NC2=O)c2ccc(C3CCN(CCN4CCC(C(=O)N5CCC(Nc6ncc(Cl)c(-c7cccc(-c8ccccc8)c7)n6)CC5)CC4)CC3)cc21 (stereo not shown) [Compound 45, 3-[5-[1-[2-[4-[4-[[5-chloro-4-(3-phenylphenyl)pyrimidin-2-yl]amino]piperidine-1-carbonyl]-1-piperidyl]ethyl]-4-piperidyl]-3-methyl-2-oxo-benzimidazol-1-yl]piperidine-2,6-dione] | < 500 |
| Cn1c(=O)n(C2CCC(=O)NC2=O)c2ccc(C3CCN(C(=O)CN4CCC(C(=O)N5CCC(Nc6ncc(Cl)c(-c7cccc(-c8ccccc8)c7)n6)CC5)CC4)CC3)cc21 (stereo not shown) [Compound 46, 3-(5-(1-(2-(4-(4-((4-([1,1′-biphenyl]-3-yl)-5-chloropyrimidin-2-yl)amino)piperidine-1-carbonyl)piperidin-1-yl)acetyl)piperidin-4-yl)-3-methyl-2-oxo-2,3-dihydro-1H-benzo[d]imidazol-1-yl)piperidine-2,6-dione] | < 500 |
| Cn1c(=O)n(C2CCC(=O)NC2=O)c2ccc(C3CCN(CC4CCN(CC(=O)N5CCC(Nc6ncc(Cl)c(-c7cccc(-c8ccccc8)c7)n6)CC5)CC4)CC3)cc21 (stereo not shown) [Compound 47, 3-(5-(1-((1-(2-(4-((4-([1,1′-biphenyl]-3-yl)-5-chloropyrimidin-2-yl)amino)piperidin-1-yl)-2-oxoethyl)piperidin-4-yl)methyl)piperidin-4-yl)-3-methyl-2-oxo-2,3-dihydro-1H-benzo[d]imidazol-1-yl)piperidine-2,6-dione] | < 500 |
| O=C1CCC(Nc2ccc(C3CCN(C4CCN(CCC(=O)N5CCC(Nc6ncc(Cl)c(-c7cccc(-c8ccccc8)c7)n6)CC5)CC4)CC3)cc2)C(=O)N1 (stereo not shown) [Compound 48, 3-((4-(1′-(3-(4-((4-([1,1′-biphenyl]-3-yl)-5-chloropyrimidin-2-yl)amino)piperidin-1-yl)-3-oxopropyl)-[1,4′-bipiperidin]-4-yl)phenyl)amino)piperidine-2,6-dione] | < 500 |
| O=C1CCC(N2Cc3cc(C4CCN(CC5CCN(CC(=O)N6CCC(Nc7ncc(Cl)c(-c8cccc(-c9ccccc9)c8)n7)CC6)CC5)CC4)ccc3C2=O)C(=O)N1 (stereo not shown) [Compound 50] | < 500 |
| O=C1CCC(Nc2ccc(C3CCN(CC4CCN(CC(=O)N5CCC(Nc6ncc(Cl)c(-c7cccc(-c8ccccc8)c7)n6)CC5)CC4)CC3)cc2)C(=O)N1 (stereo not shown) [Compound 53, 3-((4-(1-((1-(2-(4-((4-([1,1′-biphenyl]-3-yl)-5-chloropyrimidin-2-yl)amino)piperidin-1-yl)-2-oxoethyl)piperidin-4-yl)methyl)piperidin-4-yl)phenyl)amino)piperidine-2,6-dione] | 500 to 1000 |
| O=C1CCC(N2Cc3cc(C4CCN(C(=O)CN5CCC(C(=O)N6CCC(Nc7ncc(Cl)c(-c8cccc(-c9ccccc9)c8)n7)CC6)CC5)CC4)ccc3C2=O)C(=O)N1 (stereo not shown) [Compound 56, 3-(5-(1-(2-(4-(4-((4-([1,1′-biphenyl]-3-yl)-5-chloropyrimidin-2-yl)amino)piperidine-1-carbonyl)piperidin-1-yl)acetyl)piperidin-4-yl)-1-oxoisoindolin-2-yl)piperidine-2,6-dione] | < 500 |
| O=C(COc1cccc2c1C(=O)N(C1CCC(=O)NC1=O)C2=O)NCCCCCCCCCC(=O)N1CCC(Nc2ncc(Cl)c(-c3cccc(-c4ccccc4)c3)n2)CC1 (stereo not shown) [Compound 66, N-(10-(4-((4-([1,1′-biphenyl]-3-yl)-5-chloropyrimidin-2-yl)amino)piperidin-1-yl)-10-oxodecyl)-2-((2-(2,6-dioxopiperidin-3-yl)-1,3-dioxoisoindolin-4-yl)oxy)acetamide] | 500 to 1000 |
| O=C(COc1ccc2c(c1)CN(C1CCC(=O)NC1=O)C2=O)NCCC(=O)N1CCC(C(=O)N2CCC(Nc3ncc(Cl)c(-c4cccc(-c5ccccc5)c4)n3)CC2)CC1 (stereo not shown) [Compound 67, N-(3-(4-(4-((4-([1,1′-biphenyl]-3-yl)-5-chloropyrimidin-2-yl)amino)piperidine-1-carbonyl)piperidin-1-yl)-3-oxopropyl)-2-((2-(2,6-dioxopiperidin-3-yl)-1-oxoisoindolin-5-yl)oxy)acetamide] | < 500 |
| O=C(COc1ccc2c(c1)CN(C1CCC(=O)NC1=O)C2=O)NCCCC(=O)N1CCC(C(=O)N2CCC(Nc3ncc(Cl)c(-c4cccc(-c5ccccc5)c4)n3)CC2)CC1 (stereo not shown) [Compound 68, N-(4-(4-(4-((4-([1,1′-biphenyl]-3-yl)-5-chloropyrimidin-2-yl)amino)piperidine-1-carbonyl)piperidin-1-yl)-4-oxobutyl)-2-((2-(2,6-dioxopiperidin-3-yl)-1-oxoisoindolin-5-yl)oxy)acetamide] | < 500 |
| O=C(COc1cccc2c1CN(C1CCC(=O)NC1=O)C2=O)NCCCCC(=O)N1CCC(C(=O)N2CCC(Nc3ncc(Cl)c(-c4cccc(-c5ccccc5)c4)n3)CC2)CC1 (stereo not shown) [Compound 69, N-(5-(4-(4-((4-([1,1′-biphenyl]-3-yl)-5-chloropyrimidin-2-yl)amino)piperidine-1-carbonyl)piperidin-1-yl)-5-oxopentyl)-2-((2-(2,6-dioxopiperidin-3-yl)-1-oxoisoindolin-4-yl)oxy)acetamide] | < 500 |
| O=C1CCC(N2Cc3cc(C4CCN(C5CCN(CC(=O)N6CCC[C@H](Nc7ncc(Cl)c(-c8cccc(-c9ccccc9)c8)n7)C6)CC5)CC4)ccc3C2=O)C(=O)N1 (stereo partly drawn) [Compound 70, 3-(5-(1′-(2-((S)-3-((4-([1,1′-biphenyl]-3-yl)-5-chloropyrimidin-2-yl)amino)piperidin-1-yl)-2-oxoethyl)-[1,4′-bipiperidin]-4-yl)-1-oxoisoindolin-2-yl)piperidine-2,6-dione] | < 500 |
| O=C1CCC(N2Cc3cc(C4CCN(C5CCN(CC(=O)N6CCC(Nc7ncc(Cl)c(-c8cccc(-c9ccccc9)c8)n7)CC6)CC5)CC4)ccc3C2=O)C(=O)N1 (stereo not shown) [Compound 71, 3-(5-(1′-(2-(4-((4-([1,1′-biphenyl]-3-yl)-5-chloropyrimidin-2-yl)amino)piperidin-1-yl)-2-oxoethyl)-[1,4′-bipiperidin]-4-yl)-1-oxoisoindolin-2-yl)piperidine-2,6-dione] | < 500 |
| Cn1c(=O)n(C2CCC(=O)NC2=O)c2ccc(C3CCN(C4CCN(CC(=O)N5CCC(Nc6ncc(Cl)c(-c7cccc(-c8ccccc8)c7)n6)CC5)CC4)CC3)cc21 (stereo not shown) [Compound 72, 3-(5-(1′-(2-(4-((4-([1,1′-biphenyl]-3-yl)-5-chloropyrimidin-2-yl)amino)piperidin-1-yl)-2-oxoethyl)-[1,4′-bipiperidin]-4-yl)-3-methyl-2-oxo-2,3-dihydro-1H-benzo[d]imidazol-1-yl)piperidine-2,6-dione] | < 500 |
| Cn1c(=O)n(C2CCC(=O)NC2=O)c2ccc(C3CCN(CC4CCN(CC(=O)N5CCC[C@H](Nc6ncc(Cl)c(-c7cccc(-c8ccccc8)c7)n6)C5)CC4)CC3)cc21 (stereo partly drawn) [Compound 73, 3-(5-(1-((1-(2-((S)-3-((4-([1,1′-biphenyl]-3-yl)-5-chloropyrimidin-2-yl)amino)piperidin-1-yl)-2-oxoethyl)piperidin-4-yl)methyl)piperidin-4-yl)-3-methyl-2-oxo-2,3-dihydro-1H-benzo[d]imidazol-1-yl)piperidine-2,6-dione] | < 500 |
| O=C1CCC(Nc2ccc(C3CCN(CCN4CCC(C(=O)N5CCC(Nc6ncc(Cl)c(-c7cccc(-c8ccccc8)c7)n6)CC5)CC4)CC3)cc2)C(=O)N1 (stereo not shown) [Compound 74, 3-((4-(1-(2-(4-(4-((4-([1,1′-biphenyl]-3-yl)-5-chloropyrimidin-2-yl)amino)piperidine-1-carbonyl)piperidin-1-yl)ethyl)piperidin-4-yl)phenyl)amino)piperidine-2,6-dione] | < 500 |
